Laboratory results as given in ChEMBL document CHEMBL4400521, “Plasma kallikrein cleaves and inactivates apelin-17: Palmitoyl- and PEG-extended apelin-17 analogs as metabolically stable blood pressure-lowering agents” (Eur J Med Chem, 2019).
pEC50, pIC50: −log10 of the molar value. Non-standard residues stand in square brackets, D forms with d. Residues, ends and D or L forms follow the SMILES beside them. *: point of attachment. Phe(4-Br) = N[C@@H](Cc1ccc(Br)cc1)C(=O)O; Fmoc = O=C(OCC1c2ccccc2-c2ccccc21)*; PEG6 = NCCOCCOCCOCCOCCOCCOCCC(=O)O; Palmitoyl = CCCCCCCCCCCCCCCC(=O)*; NMeL = CN[C@@H](CC(C)C)C(=O)O; Nle = CCCC[C@H](N)C(=O)O; Aib = CC(C)(N)C(=O)O

How the values were obtained:
[1] = system: Mus musculus; assay: Blood pressure lowering activity in anesthetized mouse assessed as change in mean arterial blood pressure at 1.4 uM/kg, iv; type: functional
[2] = molecular target: T1, Apelin receptor (Rattus norvegicus, UniProt Q9JHG3); assay: Displacement of [125I]-(Glp1,Nle11,[…])apelin-13 from recombinant rat EGFP-fused apelin receptor expressed in CHO cell membrane measured after 3 hrs; type: cell membranes
T1 sequence (Q9JHG3 whole entry): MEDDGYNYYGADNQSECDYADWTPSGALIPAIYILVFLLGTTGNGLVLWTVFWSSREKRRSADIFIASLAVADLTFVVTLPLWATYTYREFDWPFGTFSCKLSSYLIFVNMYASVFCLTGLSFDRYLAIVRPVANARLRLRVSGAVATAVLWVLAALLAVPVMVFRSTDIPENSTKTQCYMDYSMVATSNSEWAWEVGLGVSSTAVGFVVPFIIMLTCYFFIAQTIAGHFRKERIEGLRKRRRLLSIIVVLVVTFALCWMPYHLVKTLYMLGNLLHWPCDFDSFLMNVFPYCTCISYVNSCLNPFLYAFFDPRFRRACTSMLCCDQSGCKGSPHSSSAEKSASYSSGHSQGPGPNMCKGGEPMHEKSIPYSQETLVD

[3] = molecular target: T2, Plasma kallikrein (Homo sapiens, UniProt P03952); assay: Substrate activity at recombinant human C-terminal His6-tagged KLKB1 (Pro19 to Ser262 residues) expressed in mammalian expression system assessed as Vmax measured after 30 to 60 mins by LC-MS analysis; type: ADME
[4] = molecular target: Neprilysin (Homo sapiens, UniProt P08473); assay: Substrate activity at recombinant human NEP (Tyr52 to Trp750 residues) expressed in HEK293 cells assessed as enzyme-mediated degradation onset time at 1 mM by MALDI-TOF MS analysis; type: ADME, cell-based; conditions: hek293, 1000 µM
[5] = molecular target: T2, Plasma kallikrein; assay: Substrate activity at recombinant human C-terminal His6-tagged KLKB1 (Pro19 to Ser262 residues) expressed in mammalian expression system assessed as enzyme-mediated degradation onset time at 1 mM by MALDI-TOF MS analysis; type: ADME; conditions: 1000 µM
[6] = molecular target: Neprilysin (NEP) (Homo sapiens, UniProt P08473); assay: Substrate activity at recombinant human NEP (Tyr52 to Trp750 residues) expressed in HEK293 cells assessed as compound half life by LC-MS analysis; type: ADME, cell-based
[7] = molecular target: T3, Plasma kallikrein (KLKB1) (Homo sapiens, UniProt P03952); assay: Substrate activity at KLKB1 in human plasma assessed as compound half life by LC-MS analysis; type: ADME, cell-free
[8] = molecular target: T3, Plasma kallikrein (KLKB1); assay: (§1) Substrate activity at recombinant human C-terminal His6-tagged KLKB1 (Pro19 to Ser262 residues) expressed in mammalian expression system assessed as compound half life by LC-MS analysis; type: ADME
[9] = molecular target: T4, Apelin receptor (Homo sapiens, UniProt P35414); assay: Activation of recombinant human APJ expressed in rat Chem5 cells co-expressing Galpha15 by Calcium 6-QF dye based fluorescence assay; type: functional, cell-based
T4 sequence (P35414 whole entry): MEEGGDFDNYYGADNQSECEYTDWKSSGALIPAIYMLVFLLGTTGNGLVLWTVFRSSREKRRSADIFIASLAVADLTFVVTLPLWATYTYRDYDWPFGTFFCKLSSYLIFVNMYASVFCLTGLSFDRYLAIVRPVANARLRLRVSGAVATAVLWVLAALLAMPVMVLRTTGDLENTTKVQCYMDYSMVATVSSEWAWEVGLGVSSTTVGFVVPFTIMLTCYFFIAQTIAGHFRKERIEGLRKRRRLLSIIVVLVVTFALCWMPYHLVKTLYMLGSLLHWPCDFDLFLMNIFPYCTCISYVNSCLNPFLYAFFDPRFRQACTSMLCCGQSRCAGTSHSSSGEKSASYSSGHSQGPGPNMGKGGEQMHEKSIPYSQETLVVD

[10] = molecular target: T2, Plasma kallikrein; assay: as §1; type: ADME
[11] = molecular target: T2, Plasma kallikrein; assay: Substrate activity at human KLKB1 assessed as ratio of Kcat to Km by spectrofluorimetric method; type: ADME
[12] = molecular target: T3, Plasma kallikrein (KLKB1); assay: Substrate activity at recombinant human C-terminal His6-tagged KLKB1 (Pro19 to Ser262 residues) expressed in mammalian expression system assessed as Km measured after 30 to 60 mins by LC-MS analysis; type: ADME
[13] = molecular target: T2, Plasma kallikrein; assay: Substrate activity at recombinant human C-terminal His6-tagged KLKB1 (Pro19 to Ser262 residues) expressed in mammalian expression system assessed as Kcat measured after 30 to 60 mins by LC-MS analysis; type: ADME

Neprilysin, sequence (P08473 whole entry): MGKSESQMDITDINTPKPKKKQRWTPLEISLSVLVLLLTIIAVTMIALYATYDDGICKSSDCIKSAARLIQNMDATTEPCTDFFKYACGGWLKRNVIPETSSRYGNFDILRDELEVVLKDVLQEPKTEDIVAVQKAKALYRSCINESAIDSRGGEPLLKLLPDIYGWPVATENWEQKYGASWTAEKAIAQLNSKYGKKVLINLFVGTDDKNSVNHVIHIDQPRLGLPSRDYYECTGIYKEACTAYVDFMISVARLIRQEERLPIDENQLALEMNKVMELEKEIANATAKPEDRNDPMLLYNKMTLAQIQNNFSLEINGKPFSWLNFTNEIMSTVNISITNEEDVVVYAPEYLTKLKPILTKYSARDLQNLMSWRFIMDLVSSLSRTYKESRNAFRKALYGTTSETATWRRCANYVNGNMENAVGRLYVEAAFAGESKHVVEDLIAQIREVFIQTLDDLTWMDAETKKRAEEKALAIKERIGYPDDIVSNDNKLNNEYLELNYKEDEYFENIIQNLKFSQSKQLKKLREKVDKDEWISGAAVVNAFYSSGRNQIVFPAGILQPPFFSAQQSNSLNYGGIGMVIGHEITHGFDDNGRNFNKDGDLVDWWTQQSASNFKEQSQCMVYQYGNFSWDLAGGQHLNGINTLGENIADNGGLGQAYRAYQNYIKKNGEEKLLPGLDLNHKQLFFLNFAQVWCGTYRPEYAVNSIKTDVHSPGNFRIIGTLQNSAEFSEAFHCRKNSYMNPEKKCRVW
Neprilysin (NEP), sequence (P08473 whole entry): as above
T3 sequence (P03952 20-390 limits assumed): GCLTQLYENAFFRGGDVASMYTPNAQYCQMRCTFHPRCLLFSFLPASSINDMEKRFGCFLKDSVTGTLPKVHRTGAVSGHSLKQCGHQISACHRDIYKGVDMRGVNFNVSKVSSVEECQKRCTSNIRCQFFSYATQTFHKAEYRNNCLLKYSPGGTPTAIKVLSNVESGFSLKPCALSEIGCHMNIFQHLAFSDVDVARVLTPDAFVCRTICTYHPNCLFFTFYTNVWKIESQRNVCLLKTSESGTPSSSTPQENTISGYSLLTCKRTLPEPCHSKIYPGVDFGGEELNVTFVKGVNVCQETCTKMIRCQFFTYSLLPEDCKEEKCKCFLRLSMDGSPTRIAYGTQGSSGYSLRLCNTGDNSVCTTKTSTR
T3 sequence (P03952 391-638 limits assumed): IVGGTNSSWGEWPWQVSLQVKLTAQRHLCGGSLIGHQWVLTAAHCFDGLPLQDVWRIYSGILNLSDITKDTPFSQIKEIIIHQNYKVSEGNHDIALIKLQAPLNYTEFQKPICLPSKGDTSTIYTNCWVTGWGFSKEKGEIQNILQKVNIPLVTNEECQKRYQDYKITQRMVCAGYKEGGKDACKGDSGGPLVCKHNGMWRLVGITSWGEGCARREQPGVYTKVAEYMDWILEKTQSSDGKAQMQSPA
T2 sequence (P03952 20-390 limits assumed): as the sequence (P03952 20-390 limits assumed) above
T2 sequence (P03952 391-638 limits assumed): as the sequence (P03952 391-638 limits assumed) above

| Compound | Activity [1] | pIC50 [2] | Vmax [3] | Time [4] | Time [5] | half-life [6] | half-life [7] | half-life [8] | pEC50 [9] | t1/2 [10] | Kcat/Km [11] | Km [12] | Kcat [13] |
| --- | --- | --- | --- | --- | --- | --- | --- | --- | --- | --- | --- | --- | --- |
| CSCC[C@H](NC(=O)[C@@H]1CCCN1C(=O)CNC(=O)[C@H](CCCCN)NC(=O)[C@H](Cc1cnc[nH]1)NC(=O)[C@H](CO)NC(=O)[C@H](CC(C)C)NC(=O)[C@H](CCCNC(=N)N)NC(=O)[C@@H]1CCCN1C(=O)[C@H](CCCNC(=N)N)NC(=O)[C@H](CCC(N)=O)NC(=O)[C@H](CCCNC(=N)N)NC(=O)[C@H](CCCNC(=N)N)NC(=O)[C@H](Cc1ccccc1)NC(=O)[C@@H](N)CCCCN)C(=O)N1CCC[C@H]1C(=O)N[C@@H](Cc1ccccc1)C(=O)O | -20 mmHg | 10.60 | 2.947 µmol/min | < 0.5 h | < 0.5 h | 0.4 h | 0.02 h | 0.4 h | – | – | – | – | – |
| CCCC[C@H](NC(=O)[C@@H]1CCCN1C(=O)CNC(=O)[C@H](CCCCN)NC(=O)[C@H](Cc1c[nH]cn1)NC(=O)[C@H](CO)NC(=O)[C@H](CC(C)C)NC(=O)[C@H](CCCNC(=N)N)NC(=O)[C@@H]1CCCN1C(=O)[C@H](CCCNC(=N)N)NC(=O)[C@H](CCC(N)=O)NC(=O)[C@H](CCCNC(=N)N)NC(=O)[C@H](CCCNC(=N)N)NC(=O)[C@H](Cc1ccccc1)NC(=O)[C@@H](N)CCCCN)C(=O)NC(C)(C)C(=O)N[C@@H](Cc1ccc(Br)cc1)C(=O)O (H-KFRRQRPRLSHKGP[Nle][Aib][Phe(4-Br)]-OH) | -32 mmHg | – | – | < 1 h | < 0.5 h | 0.7 h | 0.3 h | – | 8.39 | 1 h | – | – | – |
| CCCC[C@H](NC(=O)[C@@H]1CCCN1C(=O)CNC(=O)[C@H](CCCCN)NC(=O)[C@H](Cc1c[nH]cn1)NC(=O)[C@H](CO)NC(=O)[C@H](CC(C)C)N(C)C(=O)[C@H](CCCNC(=N)N)NC(=O)[C@@H]1CCCN1C(=O)[C@H](CCCNC(=N)N)NC(=O)[C@H](CCC(N)=O)NC(=O)[C@H](CCCNC(=N)N)NC(=O)[C@H](CCCNC(=N)N)NC(=O)[C@H](Cc1ccccc1)NC(=O)[C@@H](N)CCCCN)C(=O)NC(C)(C)C(=O)N[C@@H](Cc1ccc(Br)cc1)C(=O)O (H-KFRRQRPR[NMeL]SHKGP[Nle][Aib][Phe(4-Br)]-OH) | -36 mmHg | – | – | – | – | 0.9 h | 1.2 h | > 30 h | 8.31 | – | – | – | – |
| CCCC[C@H](NC(=O)[C@@H]1CCCN1C(=O)CNC(=O)[C@H](CCCCN)NC(=O)[C@H](Cc1cnc[nH]1)NC(=O)[C@H](CO)NC(=O)[C@H](CC(C)C)NC(=O)[C@H](CCCNC(=N)N)NC(=O)[C@@H]1CCCN1C(=O)[C@H](CCCNC(=N)N)NC(=O)[C@H](CCC(N)=O)NC(=O)[C@@H](N)CCCNC(=N)N)C(=O)NC(C)(C)C(=O)N[C@@H](Cc1ccc(Br)cc1)C(=O)O (H-RQRPRLSHKGP[Nle][Aib][Phe(4-Br)]-OH) | 3 mmHg | – | – | > 36 h | – | – | – | – | – | – | – | – | – |
| CCCC[C@H](NC(=O)[C@@H]1CCCN1C(=O)CNC(=O)[C@H](CCCCN)NC(=O)[C@H](Cc1cnc[nH]1)NC(=O)[C@H](CO)NC(=O)[C@H](CC(C)C)N(C)C(=O)[C@H](CCCNC(=N)N)NC(=O)[C@@H]1CCCN1C(=O)[C@H](CCCNC(=N)N)NC(=O)[C@H](CCC(N)=O)NC(=O)[C@@H](N)CCCNC(=N)N)C(=O)NC(C)(C)C(=O)N[C@@H](Cc1ccc(Br)cc1)C(=O)O (H-RQRPR[NMeL]SHKGP[Nle][Aib][Phe(4-Br)]-OH) | -15 mmHg | – | – | – | – | – | – | – | – | – | – | – | – |
| CCCCCCCCCCCCCCCC(=O)N[C@@H](CCCCN)C(=O)N[C@@H](Cc1ccccc1)C(=O)N[C@@H](CCCNC(=N)N)C(=O)N[C@@H](CCCNC(=N)N)C(=O)N[C@@H](CCC(N)=O)C(=O)N[C@@H](CCCNC(=N)N)C(=O)N1CCC[C@H]1C(=O)N[C@@H](CCCNC(=N)N)C(=O)N[C@@H](CC(C)C)C(=O)N[C@@H](CO)C(=O)N[C@@H](Cc1cnc[nH]1)C(=O)N[C@@H](CCCCN)C(=O)NCC(=O)N1CCC[C@H]1C(=O)N[C@@H](CCCC)C(=O)NC(C)(C)C(=O)N[C@@H](Cc1ccc(Br)cc1)C(=O)O (Palmitoyl-KFRRQRPRLSHKGP[Nle][Aib][Phe(4-Br)]-OH) | -41 mmHg | – | – | 1 h | 1 h | 1 h | 4.5 h | 1.5 h | – | – | – | – | – |
| CCCCCCCCCCCCCCCC(=O)N[C@@H](CCCCN)C(=O)N[C@@H](Cc1ccccc1)C(=O)N[C@@H](CCCNC(=N)N)C(=O)N[C@@H](CCCNC(=N)N)C(=O)N[C@@H](CCC(N)=O)C(=O)N[C@@H](CCCNC(=N)N)C(=O)N1CCC[C@H]1C(=O)N[C@@H](CCCNC(=N)N)C(=O)N(C)[C@@H](CC(C)C)C(=O)N[C@@H](CO)C(=O)N[C@@H](Cc1cnc[nH]1)C(=O)N[C@@H](CCCCN)C(=O)NCC(=O)N1CCC[C@H]1C(=O)N[C@@H](CCCC)C(=O)NC(C)(C)C(=O)N[C@@H](Cc1ccc(Br)cc1)C(=O)O (Palmitoyl-KFRRQRPR[NMeL]SHKGP[Nle][Aib][Phe(4-Br)]-OH) | -12 mmHg | – | – | > 36 h | 2 h | 2.1 h | 20.5 h | > 30 h | – | – | – | – | – |
| CCCC[C@H](NC(=O)[C@@H]1CCCN1C(=O)CNC(=O)[C@H](CCCCN)NC(=O)[C@H](Cc1cnc[nH]1)NC(=O)[C@H](CO)NC(=O)[C@H](CC(C)C)NC(=O)[C@H](CCCNC(=N)N)NC(=O)[C@@H]1CCCN1C(=O)[C@H](CCCNC(=N)N)NC(=O)[C@H](CCC(N)=O)NC(=O)[C@H](CCCNC(=N)N)NC(=O)[C@H](CCCNC(=N)N)NC(=O)[C@H](Cc1ccccc1)NC(=O)[C@H](CCCCN)NC(=O)CCOCCOCCOCCOCCOCCOCCNC(=O)OCC1c2ccccc2-c2ccccc21)C(=O)NC(C)(C)C(=O)N[C@@H](Cc1ccc(Br)cc1)C(=O)O ({Fmoc-PEG6}-KFRRQRPRLSHKGP[Nle][Aib][Phe(4-Br)]-OH) | -48 mmHg | – | – | 12 h | 1 h | – | 18 h | > 30 h | 8.20 | – | – | – | – |
| CCCC[C@H](NC(=O)[C@@H]1CCCN1C(=O)CNC(=O)[C@H](CCCCN)NC(=O)[C@H](Cc1cnc[nH]1)NC(=O)[C@H](CO)NC(=O)[C@H](CC(C)C)N(C)C(=O)[C@H](CCCNC(=N)N)NC(=O)[C@@H]1CCCN1C(=O)[C@H](CCCNC(=N)N)NC(=O)[C@H](CCC(N)=O)NC(=O)[C@H](CCCNC(=N)N)NC(=O)[C@H](CCCNC(=N)N)NC(=O)[C@H](Cc1ccccc1)NC(=O)[C@H](CCCCN)NC(=O)CCOCCOCCOCCOCCOCCOCCNC(=O)OCC1c2ccccc2-c2ccccc21)C(=O)NC(C)(C)C(=O)N[C@@H](Cc1ccc(Br)cc1)C(=O)O ({Fmoc-PEG6}-KFRRQRPR[NMeL]SHKGP[Nle][Aib][Phe(4-Br)]-OH) | -53 mmHg | – | – | > 36 h | 2 h | – | 27 h | > 30 h | 8.60 | – | – | – | – |
| H-SLSSMTRVVGG-OH | – | – | – | – | – | – | – | – | – | – | 0.4 ×10⁴ /Ms | 2.4 µM | 0.001 s⁻¹ |
